In patent US11958861B2, “Spirocyclic lactams as JAK2 V617F inhibitors” (Incyte Corporation, priority 2021, dated 2024):
Where a name gives a salt, the structure may show the parent alone.

Key:
[1] = target: T1, pseudo-kinase domain (JH2, amino-acids 536-812) of human V617F mutant JAK2 (Homo sapiens, UniProt O60674, F794H/V617F/W659A/W777A); test: JAK2 LanthaScreen JH2-V617F Binding Assay; details: 1 hour at 25° C.
T1 construct: pseudo-kinase domain (JH2, amino-acids 536-812 with 3 surface mutations W659A, W777A, F794H); purchased BPS Bioscience 79498; host or cells: baculovirus expression system
T1 sequence (O60674 536-812 V617F/W659A/W777A/F794H): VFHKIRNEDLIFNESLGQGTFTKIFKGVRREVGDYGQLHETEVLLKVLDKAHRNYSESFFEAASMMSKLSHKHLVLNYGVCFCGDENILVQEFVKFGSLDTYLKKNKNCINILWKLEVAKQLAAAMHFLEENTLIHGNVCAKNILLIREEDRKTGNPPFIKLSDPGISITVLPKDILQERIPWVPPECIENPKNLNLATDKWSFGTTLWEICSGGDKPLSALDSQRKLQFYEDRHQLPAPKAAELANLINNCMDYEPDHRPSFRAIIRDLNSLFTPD
Outline: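 Serially diluted compounds are mixed with 0.26 nM protein, 50 nM fluorescent JAK2-JH2 tracer and 0.25 nM terbium-labelled streptavidin, then incubated 1 h at 25° C. LanthaScreen signal is read, and IC50 is fitted.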

[2] = target: T2, pseudo-kinase domain (JH2, amino-acids 536-812) of human Wild Type JAK2 (Homo sapiens, UniProt O60674, F794H/W659A/W777A); test: JAK2 LanthaScreen JH2-WT Binding Assay; details: 1 hour at 25° C.
T2 construct: pseudo-kinase domain (JH2, amino-acids 536-812 with 3 surface mutations W659A, W777A, F794H); purchased BPS Bioscience 79463; host or cells: baculovirus expression system
T2 sequence (O60674 536-812 W659A/W777A/F794H): as the sequence (O60674 536-812 V617F/W659A/W777A/F794H) above, with F82V counted along it
Outline: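 TR-FRET tracer displacement: IC50 from four-parameter dose-response fit. Reaction: compound, 0.145 nM biotinylated JH2 protein from baculovirus, 0.25 nM streptavidin-Tb and 50 nM tracer, 1 h at 25° C, 50 mM Tris pH 7.5 buffer. 2 mM ATP gave non-specific binding.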

[3] = target: T3, catalytic domain (JH1, amino acids 826-1132) of human JAK2 (Homo sapiens, UniProt O60674); test: JAK2 LanthaScreen JH1 Binding Assay; details: 2 hours at 25° C.
T3 construct: catalytic domain (JH1, amino acids 826-1132) of human JAK2; purchased Carna Biosciences 08-445-20N; host or cells: baculovirus expression system
T3 sequence (O60674 826-1132): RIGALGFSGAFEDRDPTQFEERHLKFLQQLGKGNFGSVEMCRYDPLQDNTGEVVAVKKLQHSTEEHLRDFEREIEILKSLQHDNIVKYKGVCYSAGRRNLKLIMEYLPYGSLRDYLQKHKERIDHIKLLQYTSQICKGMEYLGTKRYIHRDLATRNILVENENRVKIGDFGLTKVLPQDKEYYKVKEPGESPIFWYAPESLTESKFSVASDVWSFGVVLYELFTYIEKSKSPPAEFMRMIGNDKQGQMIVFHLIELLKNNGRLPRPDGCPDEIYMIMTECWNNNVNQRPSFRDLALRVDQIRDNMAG
Outline: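 Reaction held 1.5 nM biotinylated FLAG-JAK2 JH1, 50 nM tracer and 0.5 nM streptavidin-Tb in pH 7.5 Tris buffer; 2 mM ATP defined nonspecific binding.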

[4] = target: T4, catalytic domain (JH1, amino acids 808-1132) of human JAK2 (Homo sapiens, UniProt O60674); test: JAK2 HTRF Enzyme Activity Assay; format: biochemical; details: ATP 30 μM, read-out: ENZ 30UMATP
T4 construct: catalytic domain (JH1, amino acids 808-1132) of human JAK2; His (N); purchased BPS Bioscience 40450; host or cells: baculovirus expression system
T4 sequence (O60674 808-1132): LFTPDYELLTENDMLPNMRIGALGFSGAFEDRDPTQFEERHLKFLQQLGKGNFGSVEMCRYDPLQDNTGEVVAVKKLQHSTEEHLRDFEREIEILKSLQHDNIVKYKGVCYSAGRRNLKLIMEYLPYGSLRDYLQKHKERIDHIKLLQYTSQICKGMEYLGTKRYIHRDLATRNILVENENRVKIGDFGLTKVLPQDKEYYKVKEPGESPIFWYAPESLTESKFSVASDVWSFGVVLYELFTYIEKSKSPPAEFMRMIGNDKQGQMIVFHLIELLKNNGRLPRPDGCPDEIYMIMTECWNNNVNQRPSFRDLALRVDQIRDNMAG
Outline: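 IC50 values come from a four-parameter fit of HTRF signal (Eu-PY20 antibody/streptavidin-APC, EDTA-quenched). Reaction: 0.015 nM N-His JAK2 catalytic domain (baculovirus), 500 nM biotin-peptide, 30 μM or 1 mM ATP, Tris pH 7.5 buffer, 60 min, 25° C.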

CCS(=O)(=O)N1CC2(C1)CC1(C2)C(=O)N(C)c2cnc3[nH]c(-c4cnn(CCOC)c4)c(-c4ccc5c(cnn5C)c4)c3c21 [Example 88, 1-(Ethylsulfonyl)-2″-(1-(2-methoxyethyl)-1H-pyrazol-4-yl)-6″-methyl-1″-(1-methyl-1H-indazol-5-yl)-3″,6″-dihydro-7″H-dispiro[azetidine-3,1′-cyclobutane-3′,8″-dipyrrolo[2,3-b:3′,2′-d]pyridin]-7″-one, trifluoroacetate salt] was tested, and the IC50 [1] was ≤ 0.1 µM, the IC50 [2] was ≤ 0.1 µM and the IC50 [3] was 1.25 to 2.5 µM. The IC50 [4] was 1.25 to 2.5 µM.
With O=C(O)C(F)(F)F.[2H]C([2H])([2H])N1C(=O)C2(CC3(CN(S(=O)(=O)CC)C3)C2)c2c1cnc1[nH]c(-c3cnn(C(C)C)c3)c(-c3ccc4c(cnn4C)c3)c21 [Example 89, 1-(Ethylsulfonyl)-2″-(1-isopropyl-1H-pyrazol-4-yl)-6″-(methyl-d3)-1″-(1-methyl-1H-indazol-5-yl)-3″,6″-dihydro-7″H-dispiro[azetidine-3,1′-cyclobutane-3′,8″-dipyrrolo[2,3-b:3′,2′-d]pyridin]-7″-one, trifluoroacetate salt] the IC50 [1] was ≤ 0.1 µM, the IC50 [2] was ≤ 0.1 µM and the IC50 [3] was 1.25 to 2.5 µM. The IC50 [4] was 1.25 to 2.5 µM.
With CCS(=O)(=O)N1CC2(C1)CC1(C2)C(=O)N(C)c2cnc3[nH]c(-c4cnn(C5CCCC5)c4)c(-c4ccc5c(cnn5C)c4)c3c21 [Example 90, 2″-(1-Cyclopentyl-1H-pyrazol-4-yl)-1-(ethylsulfonyl)-6″-methyl-1″-(1-methyl-1H-indazol-5-yl)-3″,6″-dihydro-7″H-dispiro[azetidine-3,1′-cyclobutane-3′,8″-dipyrrolo[2,3-b:3′,2′-d]pyridin]-7″-one, trifluoroacetate salt] the IC50 [1] was ≤ 0.1 µM, the IC50 [2] was ≤ 0.1 µM and the IC50 [3] was 1.25 to 2.5 µM. For the same molecule, the IC50 [4] was 1.25 to 2.5 µM.
For CCS(=O)(=O)N1CC2(C1)CC1(C2)C(=O)N(C)c2cnc3[nH]c(-c4ccc(CN5CCC(C#N)CC5)cc4)c(-c4ccc5c(cnn5C)c4)c3c21 [Example 91, l-(4-(1-(Ethylsulfonyl)-6″-methyl-1″-(1-(methy-d3)-1H-indazol-5-yl)-7″-oxo-6″,7″-dihydro-3″H-dispiro[azetidine-3,1′-cyclobutane-3′,8″-dipyrrolo[2,3-b:3′,2′-d]pyridin]-2″-yl)benzyl)piperidine-4-carbonitrile, trifluoroacetate salt], the IC50 [1] was ≤ 0.1 µM, the IC50 [2] was ≤ 0.1 µM and the IC50 [3] was 1.25 to 2.5 µM. It also gave an IC50 [4] of 1.25 to 2.5 µM.
In the case of O=C(O)C(F)(F)F.[2H]C([2H])([2H])N1C(=O)C2(CC3(CN(S(=O)(=O)CC)C3)C2)c2c1cnc1[nH]c(-c3ccc(CN4CCOCC4)cc3)c(-c3ccc(OC)cc3)c21 [Example 92, 1-(Ethylsulfonyl)-1″-(4-methoxyphenyl)-6″-(methyl-d3)-2″-(4-(morpholinomethyl)phenyl)-3″,6″-dihydro-7″H-dispiro[azetidine-3,1′-cyclobutane-3′,8″-dipyrrolo[2,3-b:3′,2′-d]pyridin]-7″-one, trifluoroacetate salt], the IC50 [1] is reported as ≤ 0.1 µM, the IC50 [2] is reported as ≤ 0.1 µM and the IC50 [3] is reported as > 2.5 µM. For the same molecule, the IC50 [4] was > 2.5 µM.
In the case of CCS(=O)(=O)N1CC2(C1)CC1(C2)C(=O)N(C)c2cnc3[nH]c(-c4cnn(CC(F)F)c4)c(-c4ccc5c(cnn5C)c4)c3c21 [Example 93, 2″-(1-(2,2-Difluoroethyl)-1H-pyrazol-4-yl)-1-(ethylsulfonyl)-6″-methyl-1″-(1-methyl-1H-indazol-5-yl)-3″,6″-dihydro-7″-dispiro[azetidine-3,1′-cyclobutane-3′,8″-dipyrrolo[2,3-b:3′,2′-d]pyridin]-7″-one, trifluoroacetate salt], the IC50 [1] is reported as ≤ 0.1 µM, the IC50 [2] is reported as ≤ 0.1 µM and the IC50 [3] is reported as 1.25 to 2.5 µM. It also gave an IC50 [4] of 1.25 to 2.5 µM.
